From ChEMBL document CHEMBL1127172, “Novel pseudosymmetric inhibitors of HIV-1 protease” (Bioorg Med Chem Lett, 1993)

What was measured:
[1] = molecular target: Human immunodeficiency virus type 1 protease (Human immunodeficiency virus 1, UniProt Q72874); experiment: In vitro inhibition of HIV-1 protease at pH 6 using 164 uM peptide substrate
[2] = test system: Human immunodeficiency virus 1; experiment: Antiviral activity against HIV-1 LAV virus infected MT-2 cells with reference to AZT (ED90=0.3 uM); format: functional, MT2
MT2 = experiment: The compound was tested for its antiviral activity against HIV-1LAV virus infected MT-2 cells; format: functional, Homo sapiens
[3] = molecular target: Human immunodeficiency virus type 1 protease (Human immunodeficiency virus 1) (UniProt Q72874); experiment: The compound was tested in vitro for the % inhibition of HIV-1 protease at 100 uM concentration
Gastricsin = molecular target: T1, Gastricsin (Homo sapiens, UniProt P20142); experiment: The compound was tested for its inhibitory activity against human gastricsin
T1 sequence (P20142 whole entry): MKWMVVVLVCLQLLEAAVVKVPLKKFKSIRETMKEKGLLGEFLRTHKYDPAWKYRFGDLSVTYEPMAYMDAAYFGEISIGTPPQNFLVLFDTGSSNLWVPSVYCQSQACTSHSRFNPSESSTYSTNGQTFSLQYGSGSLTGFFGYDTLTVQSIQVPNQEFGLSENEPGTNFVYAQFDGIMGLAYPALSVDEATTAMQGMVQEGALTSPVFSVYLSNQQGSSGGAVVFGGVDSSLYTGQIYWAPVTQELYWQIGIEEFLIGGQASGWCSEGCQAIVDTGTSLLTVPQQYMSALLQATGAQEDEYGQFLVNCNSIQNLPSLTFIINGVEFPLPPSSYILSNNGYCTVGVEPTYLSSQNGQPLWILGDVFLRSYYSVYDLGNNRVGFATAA

Cathepsin E = molecular target: T2, Cathepsin E (Homo sapiens, UniProt P14091); experiment: The compound was tested for its inhibitory activity against human cathepsin E
T2 sequence (P14091 whole entry): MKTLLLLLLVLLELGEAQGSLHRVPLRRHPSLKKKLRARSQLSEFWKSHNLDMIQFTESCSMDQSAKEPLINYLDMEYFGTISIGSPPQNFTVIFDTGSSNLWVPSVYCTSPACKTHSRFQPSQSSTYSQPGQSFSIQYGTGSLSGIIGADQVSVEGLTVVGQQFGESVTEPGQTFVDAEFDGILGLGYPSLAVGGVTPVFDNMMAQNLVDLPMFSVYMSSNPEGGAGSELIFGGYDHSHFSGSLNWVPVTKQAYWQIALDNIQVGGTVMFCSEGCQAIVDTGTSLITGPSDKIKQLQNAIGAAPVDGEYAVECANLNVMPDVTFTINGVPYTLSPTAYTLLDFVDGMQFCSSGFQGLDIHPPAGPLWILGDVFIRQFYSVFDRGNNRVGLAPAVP

Renin = molecular target: T3, Renin (Homo sapiens, UniProt P00797); experiment: The compound was tested for its inhibitory activity against human renin
T3 sequence (P00797 whole entry): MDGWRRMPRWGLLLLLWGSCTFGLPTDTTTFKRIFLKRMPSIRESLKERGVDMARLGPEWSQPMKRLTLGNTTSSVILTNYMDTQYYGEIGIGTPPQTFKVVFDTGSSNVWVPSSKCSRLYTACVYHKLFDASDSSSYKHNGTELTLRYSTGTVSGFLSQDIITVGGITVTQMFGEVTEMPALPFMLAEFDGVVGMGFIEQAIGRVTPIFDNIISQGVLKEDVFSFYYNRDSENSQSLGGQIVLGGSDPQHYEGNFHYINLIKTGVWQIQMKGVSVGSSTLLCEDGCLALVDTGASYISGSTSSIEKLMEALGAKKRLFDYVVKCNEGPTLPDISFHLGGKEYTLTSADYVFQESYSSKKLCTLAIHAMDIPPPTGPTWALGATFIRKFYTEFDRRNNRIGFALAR

Cathepsin D = Cathepsin D (Homo sapiens, UniProt P07339); experiment: The compound was tested for its inhibitory activity against human cathepsin D
Cathepsin D, sequence (P07339 65-162 limits assumed): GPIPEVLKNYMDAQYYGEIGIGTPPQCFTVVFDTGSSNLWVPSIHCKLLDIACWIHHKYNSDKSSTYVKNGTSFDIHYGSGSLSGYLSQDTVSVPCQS
Cathepsin D, sequence (P07339 169-412 limits assumed): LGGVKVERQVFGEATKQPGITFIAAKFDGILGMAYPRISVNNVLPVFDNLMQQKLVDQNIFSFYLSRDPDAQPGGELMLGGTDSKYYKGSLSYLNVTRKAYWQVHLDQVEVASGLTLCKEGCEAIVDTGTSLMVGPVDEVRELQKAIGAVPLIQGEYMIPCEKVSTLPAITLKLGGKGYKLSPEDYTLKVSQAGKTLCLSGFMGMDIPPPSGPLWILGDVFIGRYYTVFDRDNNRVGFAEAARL

| SMILES | IC50 [1] | ED90 [2] | other results |
| --- | --- | --- | --- |
| CC(C)(C)OC(=O)N[C@@H](Cc1ccccc1)[C@@H](O)CN(Cc1ccccc1)NC(=O)OC(C)(C)C | ~50000 nM |  |  |
| CC(=O)N[C@H](C(=O)N[C@@H](Cc1ccccc1)[C@@H](O)CN(Cc1ccccc1)NC(=O)[C@H](NC(C)=O)C(C)C)C(C)C | 30 nM | 10000 nM |  |
| CC(C)[C@H](NC(=O)Cc1cccnc1)C(=O)N[C@@H](Cc1ccccc1)[C@@H](O)CN(Cc1ccccc1)NC(=O)[C@H](NC(=O)Cc1cccnc1)C(C)C | 500 nM |  |  |
| CC(C)[C@H](NC(=O)OC(C)(C)C)C(=O)N[C@@H](Cc1ccccc1)[C@@H](O)CN(Cc1ccccc1)NC(=O)[C@H](NC(=O)OC(C)(C)C)C(C)C | 52000 nM |  |  |
| Cc1cn([C@H]2C[C@H](N=[N+]=[N-])[C@@H](CO)O2)c(=O)[nH]c1=O [ZIDOVUDINE] |  |  | ED90 (MT2): 300 nM |
| CC(C)CN(C[C@H](O)[C@H](Cc1ccccc1)NC(=O)[C@@H](NC(=O)OCc1ccccc1)C(C)C)NC(=O)[C@@H](NC(=O)OCc1ccccc1)C(C)C | 10 nM | >1000 nM |  |
| CC(=O)N[C@H](C(=O)N[C@@H](Cc1ccccc1)[C@@H](O)CN(CC(C)C)NC(=O)[C@@H](NC(C)=O)C(C)C)C(C)C | 45 nM | >1000 nM |  |
| CC(C)[C@H](NC(=O)OCc1ccccc1)C(=O)N[C@@H](Cc1ccccc1)[C@@H](O)CN(Cc1ccc(F)cc1)NC(=O)[C@@H](NC(=O)OCc1ccccc1)C(C)C | 22 nM | 1000 nM |  |
| CC(C)[C@H](NC(=O)OCc1ccccc1)C(=O)NN(Cc1ccccc1)C[C@H](O)[C@H](Cc1ccccc1)NC(=O)[C@H](NC(=O)OCc1ccccc1)C(C)C | > 100000 nM |  | inhibition [3]: 40% |
| CC(=O)N[C@H](C(=O)N[C@@H](Cc1ccccc1)[C@@H](O)CN(CC1CCCCC1)NC(=O)[C@@H](NC(C)=O)C(C)C)C(C)C | 9 nM | 1000 nM | IC50 (Gastricsin): 1000 nM; IC50 (Cathepsin E): 2000 nM; IC50 (Renin): > 58000 nM; IC50 (Cathepsin D): 7500 nM |
| CC(C)[C@H](NC(=O)Cc1ccccc1)C(=O)N[C@@H](Cc1ccccc1)[C@@H](O)CN(Cc1ccccc1)NC(=O)[C@H](NC(=O)Cc1ccccc1)C(C)C | 360 nM |  |  |
| CC(C)[C@H](NC(=O)OCc1ccccc1)C(=O)N[C@@H](Cc1ccccc1)[C@@H](O)CN(Cc1ccccc1)NC(=O)[C@H](NC(=O)OCc1ccccc1)C(C)C | 33 nM | 100 nM |  |
| CC(C)[C@H](N)C(=O)N[C@@H](Cc1ccccc1)[C@@H](O)CN(Cc1ccccc1)NC(=O)[C@H](N)C(C)C | > 100000 nM |  | inhibition [3]: 32% |
| CC(C)[C@H](NC(=O)OCc1ccccc1)C(=O)N[C@@H](Cc1ccccc1)[C@@H](O)CN(Cc1ccc(C#N)cc1)NC(=O)[C@@H](NC(=O)OCc1ccccc1)C(C)C | 24 nM | 100 nM |  |
| CC(=O)N[C@H](C(=O)N[C@@H](Cc1ccccc1)[C@@H](O)CN(Cc1ccc(C#N)cc1)NC(=O)[C@@H](NC(C)=O)C(C)C)C(C)C | 50 nM | >10000 nM |  |
| CC(C)[C@H](NC(=O)c1ccc2ccccc2n1)C(=O)N[C@@H](Cc1ccccc1)[C@@H](O)CN(Cc1ccccc1)NC(=O)[C@H](NC(=O)c1ccc2ccccc2n1)C(C)C | 65 nM |  |  |
| CC(C)[C@H](NC(=O)OCc1ccccc1)C(=O)N[C@@H](Cc1ccccc1)[C@@H](O)CN(CC1CCCCC1)NC(=O)[C@@H](NC(=O)OCc1ccccc1)C(C)C | 95 nM | 1000 nM |  |
| CC(C)[C@H](NC(=O)N1CCOCC1)C(=O)N[C@@H](Cc1ccccc1)[C@@H](O)CN(Cc1ccccc1)NC(=O)[C@H](NC(=O)N1CCOCC1)C(C)C | 2000 nM |  |  |
| CC(=O)N[C@H](C(=O)N[C@@H](Cc1ccccc1)[C@@H](O)CN(Cc1ccc(F)cc1)NC(=O)[C@@H](NC(C)=O)C(C)C)C(C)C | 28 nM | 10000 nM |  |
